Results published in patent US6838416B2, “Herbicidal 5-benzyloxymethyl-1,2-isoxazoline derivatives” (Korea Research Institute of Chemical Technology, priority 2000, dated 2005).

Tests used:
Conditions in all cases: three weeks after application, 0 untreated control, 100 complete kill
SCPJU (seed) = test: Assay for herbicidal activity, paddy pots: SCPJU; assay type: in vivo, Scirpus juncoides ROXB
Excerpt: (§1) To evaluate herbicidal activity against the paddy weeds in the paddy rice (ORYSA: Oryza sativa L.), the herbicidal activity of the compounds of the invention was compared to that of the compound No.109 (compound A) disclosed in U.S. Pat. […] The paddy weeds tested were ECHOR (Echinochloa crus-galli var. oryzicola), SCPJU (Scirpus juncoides ROXB), MOOVA (Monochoria vaginalis […] (Cyperus serotinus ROTTB), and SAGPY (Sagittaria pygmaea MTQ). The vessels employed were plastic pots having an area of 140 cm^2 and filled with a sandy loam soil containing 1.2% organic matter (pH 6).

CYPSE (tuber) = test: Assay for herbicidal activity, paddy pots: CYPSE; assay type: in vivo, Cyperus serotinus ROTTB
Excerpt: as §1

MOOVA (seed) = test: Assay for herbicidal activity, paddy pots: MOOVA; assay type: in vivo, Monochoria vaginalis PRESL
Excerpt: as §1

SAGPY (tuber) = test: Assay for herbicidal activity, paddy pots: SAGPY; assay type: in vivo, Sagittaria pygmaea MTQ
Excerpt: as §1

ECHOR (seed) = test: Assay for herbicidal activity, paddy pots: ECHOR; assay type: in vivo, Echinochloa crus-galli var. oryzicola
Excerpt: as §1

SMILES | SCPJU (seed) herbicidal activity, visual percentage grading (SCPJU (seed); 0.016 kg/ha) [%] | SCPJU (seed) herbicidal activity, visual percentage grading (SCPJU (seed); 0.063 kg/ha) [%] | SCPJU (seed) herbicidal activity, visual percentage grading (SCPJU (seed); 0.250 kg/ha) [%] | SCPJU (seed) herbicidal activity, visual percentage grading (SCPJU (seed); 1.000 kg/ha) [%] | SCPJU (seed) herbicidal activity, visual percentage grading (SCPJU (seed); 4.000 kg/ha) [%] | CYPSE (tuber) herbicidal activity, visual percentage grading (CYPSE (tuber); 0.016 kg/ha) [%] | CYPSE (tuber) herbicidal activity, visual percentage grading (CYPSE (tuber); 0.063 kg/ha) [%] | CYPSE (tuber) herbicidal activity, visual percentage grading (CYPSE (tuber); 0.250 kg/ha) [%] | CYPSE (tuber) herbicidal activity, visual percentage grading (CYPSE (tuber); 1.000 kg/ha) [%] | CYPSE (tuber) herbicidal activity, visual percentage grading (CYPSE (tuber); 4.000 kg/ha) [%] | MOOVA (seed) herbicidal activity, visual percentage grading (MOOVA (seed); 0.016 kg/ha) [%] | MOOVA (seed) herbicidal activity, visual percentage grading (MOOVA (seed); 0.063 kg/ha) [%] | MOOVA (seed) herbicidal activity, visual percentage grading (MOOVA (seed); 0.250 kg/ha) [%] | MOOVA (seed) herbicidal activity, visual percentage grading (MOOVA (seed); 1.000 kg/ha) [%] | MOOVA (seed) herbicidal activity, visual percentage grading (MOOVA (seed); 4.000 kg/ha) [%] | SAGPY (tuber) herbicidal activity, visual percentage grading (SAGPY (tuber); 0.016 kg/ha) [%] | SAGPY (tuber) herbicidal activity, visual percentage grading (SAGPY (tuber); 0.063 kg/ha) [%] | SAGPY (tuber) herbicidal activity, visual percentage grading (SAGPY (tuber); 0.250 kg/ha) [%] | SAGPY (tuber) herbicidal activity, visual percentage grading (SAGPY (tuber); 1.000 kg/ha) [%] | SAGPY (tuber) herbicidal activity, visual percentage grading (SAGPY (tuber); 4.000 kg/ha) [%] | other results
Cc1ccc(C2=NOC(C)(COCc3cccc(F)c3)C2)s1 (stereo not drawn) [EXAMPLE 3, 5-(3-fluorobenzyl)oxymethyl-5-methyl-3-(2-methylthiophene-5-yl)-1,2-isoxazoline] | 0 | 20 | 40 | 60 | 100 | 0 | 40 | 90 | 100 | 100 | 20 | 50 | 60 | 80 | 100 | 0 | 0 | 0 | 50 | 40 | ECHOR (seed) herbicidal activity, visual percentage grading (ECHOR (seed); 0.016 kg/ha): 20%; ECHOR (seed) herbicidal activity, visual percentage grading (ECHOR (seed); 0.063 kg/ha): 55%; ECHOR (seed) herbicidal activity, visual percentage grading (ECHOR (seed); 0.250 kg/ha): 100%; ECHOR (seed) herbicidal activity, visual percentage grading (ECHOR (seed); 1.000 kg/ha): 100%; ECHOR (seed) herbicidal activity, visual percentage grading (ECHOR (seed); 4.000 kg/ha): 100%
Cc1ccsc1C1=NOC(C)(COCc2ccccc2)C1 (stereo not drawn) [EXAMPLE 5, 5-benzyloxymethyl-5-methyl-3-(4-methylthiophene-5-yl)-1,2-isoxazoline] | 0 | 10 | 30 | 60 | 100 | 0 | 0 | 30 | 100 | 100 | 0 | 10 | 80 | 90 | 100 | 0 | 0 | 20 | 50 | 70 | ECHOR (seed) herbicidal activity, visual percentage grading (ECHOR (seed); 0.016 kg/ha): 0%; ECHOR (seed) herbicidal activity, visual percentage grading (ECHOR (seed); 0.063 kg/ha): 30%; ECHOR (seed) herbicidal activity, visual percentage grading (ECHOR (seed); 0.250 kg/ha): 100%; ECHOR (seed) herbicidal activity, visual percentage grading (ECHOR (seed); 1.000 kg/ha): 100%; ECHOR (seed) herbicidal activity, visual percentage grading (ECHOR (seed); 4.000 kg/ha): 100%
Cc1cc(C)c(C2=NOC(C)(COCc3ccccc3F)C2)s1 (stereo not drawn) [EXAMPLE 13, 5-(2-fluorobenzyl)oxymethyl-5-methyl-3-(2,4-dimethylthiophene-5-yl)-1,2-isoxazoline] | 30 | 30 | 70 | 90 | 100 | 0 | 0 | 90 | 100 | 100 | 50 | 70 | 80 | 90 | 100 | 0 | 0 | 0 | 0 | 30 | ECHOR (seed) herbicidal activity, visual percentage grading (ECHOR (seed); 0.016 kg/ha): 50%; ECHOR (seed) herbicidal activity, visual percentage grading (ECHOR (seed); 0.063 kg/ha): 70%; ECHOR (seed) herbicidal activity, visual percentage grading (ECHOR (seed); 0.250 kg/ha): 100%; ECHOR (seed) herbicidal activity, visual percentage grading (ECHOR (seed); 1.000 kg/ha): 100%; ECHOR (seed) herbicidal activity, visual percentage grading (ECHOR (seed); 4.000 kg/ha): 100%
